Values joined by “and” are separate entries in the source; they are usually repeats but may differ in a detail not shown here. Identical values can stand only once.
Tested on: MDCK cells
Assay: MTT assay (cytotoxicity against MDCK cells)
Assay type: cell-based, canine
Settings: MDCK cells; for MTT, DMSO as 100 (DMSOを 100として), ave / MTT 72h AVE (DMSO = 100): 72h; for MTT, DMSO as 100 (DMSOを 100として), ave: mean of 5 wells (200409 #1 and #3); for MTT 72h AVE (DMSO = 100): summary AVE; for MTT 24h, AVE (DMSO as 100) / MTT 24h, 570-650nm, DMSO as 100, ave: mean of 5 wells from 3 experiments; for MTT 24h, AVE (DMSO as 100): relative to DMSO = 100; for MTT 24h, 570-650nm, DMSO as 100, single replicate: individual wells (200331; 200403 #2 1,2; 200403 #3 1,2); for 570-650nm (MTT absorbance, single wells) / 570-650nm ave (mean MTT absorbance of 5 wells) / MTT absorbance with DMSO as 100 (DMSOを 100として), single wells: MTT 72h; for 570-650nm (MTT absorbance, single wells): experiments #1-#3, duplicate wells; for MTT absorbance with DMSO as 100 (DMSOを 100として), single wells: relative to mean of DMSO
Method: 1–5 (0.8–100 μM) were prepared in DMSO (100 μM, 1%; 50 μM, 0.5%; 25 μM, 0.25%; 12.5 μM, 0.125%; 6.3 μM, 0.063%; 3.1 μM, 0.031%; 1.6 μM, 0.016%; 0.8 μM, 0.008%) and mixed with infection medium (DMEM supplemented with 1% bovine serum albumin (BSA; Wako), P/S and 4 mM L-glutamine). The resulting mixture was added to the cells and incubated for 24 or 72 h at 37°C in the presence of 5% CO2. After incubation, cell viability was determined using an MTT cell count kit (Nacalai Tesque) according to the manufacturer’s instructions, as previously described.

In the case of `C=C[C@]1(C)CC[C@@H](C(C)(C)O)[C@H](c2ccc(O)cc2)C1` [Cyclo. D], the “MTT, DMSO as 100 (DMSOを 100として), ave” value (0.78uM) is reported as 98.8071, the “MTT, DMSO as 100 (DMSOを 100として), ave” value (1.56uM) is reported as 117.006 and the “MTT, DMSO as 100 (DMSOを 100として), ave” value (3.125uM) is reported as 147.657. The “MTT 72h AVE (DMSO = 100)” value (6.25 (uM)) was 128.371, the “MTT 72h AVE (DMSO = 100)” value (12.5 (uM)) was 127.934 and the “MTT 72h AVE (DMSO = 100)” value (25 (uM)) was 145.717. For the same compound, the “MTT 72h AVE (DMSO = 100)” value (50 (uM)) was 126.261, the “MTT 72h AVE (DMSO = 100)” value (100 (uM)) was 126.655 and the “MTT 24h, AVE (DMSO as 100)” value (0.78 uM) was 97.8994. The “MTT 24h, AVE (DMSO as 100)” value (1.56 uM) was 96.8321, the “MTT 24h, 570-650nm, DMSO as 100, single replicate” value (“MTT 24h … single replicate” for short) (3.125uM) was 84.6917 and 82.6734 and 92.4491 and 113.857 and 84.268 and the “MTT 24h, 570-650nm, DMSO as 100, ave” value (3.125uM) was 91.5878. The “MTT 24h … single replicate” value (6.25uM) was 85.6335 and 89.7131 and 106.9 and 111.896 and 88.988, the “MTT 24h, 570-650nm, DMSO as 100, ave” value (6.25uM) was 96.6263 and the “MTT 24h … single replicate” value (12.5uM) was 81.4488 and 91.9219 and 102.896 and 113.782 and 96.5227. For the same compound, the “MTT 24h, 570-650nm, DMSO as 100, ave” value (12.5uM) was 97.3142, the “MTT 24h … single replicate” value (25uM) was 77.2963 and 96.4082 and 113.294 and 115.224 and 87.3126 and the “MTT 24h, 570-650nm, DMSO as 100, ave” value (25uM) was 97.9071. The “MTT 24h … single replicate” value (50uM) was 91.2134 and 100.963 and 94.7794 and 115.361 and 101.24, the “MTT 24h, 570-650nm, DMSO as 100, ave” value (50uM) was 100.712 and the “MTT 24h … single replicate” value (100uM) was 94.6456 and 103.228 and 107.83 and 131.616 and 116.582. For the same compound, the “MTT 24h, 570-650nm, DMSO as 100, ave” value (100uM) was 110.78, the “570-650nm (MTT absorbance, single wells)” value (0.78uM) was 0.4378 and 0.7486 and 0.8741 and 0.5119 and 0.7887 and 0.8621 and the “570-650nm (MTT absorbance, single wells)” value (3.13uM (3.125uM in summary block)) was 0.9735 and 1.011 and 0.8858 and 1.0444 and 0.9175 and 1.1144. The “570-650nm ave (mean MTT absorbance of 5 wells)” value (“570-650nm ave” for short) (6.25uM) was 0.8781, the “MTT absorbance with DMSO as 100 (DMSOを 100として), single wells” value (“MTT absorbance with DMSO” below) (6.25uM) was 79.8684 and 128.626 and 158.904 and 136.433 and 138.026 and the “570-650nm ave” value (12.5uM) was 1.0183. The “570-650nm (MTT absorbance, single wells)” value (12.5uM) was 0.9745 and 1.0068 and 0.9175 and 1.0063 and 1.0002 and 1.1607, the “MTT absorbance with DMSO” value (12.5uM) was 126.426 and 115.27 and 145.824 and 125.66 and 126.489 and the “570-650nm ave” value (25uM) was 1.096. For the same compound, the “570-650nm (MTT absorbance, single wells)” value (25uM) was 1.0789 and 1.1027 and 0.9947 and 1.0822 and 1.1213 and 1.1788, the “MTT absorbance with DMSO” value (25uM) was 143.89 and 132.256 and 156.734 and 149.089 and 146.616 and the “570-650nm ave” value (50uM) was 1.152. The “570-650nm (MTT absorbance, single wells)” value (50uM) was 1.148 and 1.1434 and 1.0891 and 1.1437 and 1.0821 and 1.3031, the “MTT absorbance with DMSO” value (50uM) was 125.321 and 119.338 and 142.787 and 118.571 and 125.288 and the “570-650nm ave” value (100uM) was 1.192. For the same compound, the “570-650nm (MTT absorbance, single wells)” value (100uM) was 1.3579 and 1.2781 and 1.2394 and 0.9368 and 1.1592 and 1.3488 and the “MTT absorbance with DMSO” value (100uM) was 99.5008 and 131.641 and 143.261 and 123.123 and 135.751.
